# Test results taken from US20260234187A1, “ANTIMICROBIAL PEPTIDES” (MATERIAS S.R.L., priority 2020, published 2026).
# Read-outs that look alike come from different tables or passages of the source. Where no end group is shown, it is not given here.
# Tests used:
# [1] = format: physicochemical
# Method: The structural and conformational characterization of the RiLK1 peptide was assessed by investigating its secondary structure by ^1H NMR spectroscopy in H2O and in a micellar solution of SDS at a concentration of 150 mM to mimic the condition of the bacterial cell membrane.
# In fact, the representative structures of the RiLK1 peptide in water show a random orientation of both polar and hydrophobic amino acid side chains.
# The helical structure appears well defined and stabilized by hydrophobic interactions of amino acid residues located on the opposite face. It is important to note that, in this arrangement, all the charged side chains are iso-oriented and well prone to interact with the negatively charged surface of the SDS micelles. Furthermore, the two tryptophan residues within the RiLK1 sequence are located at an optimal distance for their mutual stacking, thus contributing to the stabilization of the helix. It should be pointed out that the ^1H NMR spectra of the peptide IDR-1018-K6 (described in patent application WO2019012158) could not be acquired in the presence of micellar solutions of SDS since it is not soluble at the concentrations required to carry out these assays. […] Therefore, it is possible to assert that the NMR analysis in the presence of SDS has shown that the RiLK1 peptide of the present invention is capable of adopting the helix conformation, whereas the IDR-1018-K6 peptide (object of patent WO2019012158) has poor solubility and a heterogeneous system not suitable for NMR structural characterization (Table 2).
# [2] = format: physicochemical; settings: Tris HCL pH 7, 3 mM SDS
# Method: 0.1 g/L of RiLK1 peptide was dissolved in 10 mM Tris HCL at pH 7 and 3 mM SDS. The prepared samples were incubated for 24 hours at 4° C. or 25° C. and analysed at time zero and after 24 hours.
# L. monocytogenes (LM2) = format: cell-based, Listeria monocytogenes
# Method: The evaluation of the Minimum Bactericidal Concentration (MBC), i.e., the lowest concentration of antimicrobial agent capable of 99.9% inhibition of bacterial growth on plates, was carried out as described in Bílikova et al, (2015, Peptides 68:190-196). […] It should be noted that the peptide object of the present invention is more powerful and efficient than the peptide IDR-1018-K6 (described in patent application WO2019012158) against the pathogenic bacteria L. monocytogenes and S. typhimurium, with bactericidal concentration values 4-fold and 7-fold lower, respectively, compared to those shown by IDR-1018-K6.
# [3] = test system: Aspergillus brasiliensis (ATCC 9341); test: antifungal activity, plate count, MFC; format: cell-based; settings: A. brasiliensis; 25 μM, 6 h
# Method: The antifungal activity of the RiLK1 peptide was determined against Aspergillus brasiliensis. For this purpose, a stock culture was prepared in which 10^5 CFUs of A. brasiliensis were inoculated in 10 ml of buffered peptone water. A reference strain (ATCC 9341) was used for this fungal species. The culture was incubated for 6 h at 37° C. with the RiLK1 peptide at 25 μM concentrations. At the same time, control samples were incubated without adding the peptide. 100 μl of the samples thus prepared were seeded on DG18 plates (Dichloran 18% Glycerol Agar-ISO 21527-2) and incubated at 25° C. for 7 days. All experimental conditions investigated used the plate count method to estimate the fungicidal activity of the peptide. Specifically, the numbers of colonies grown on agar plates seeded with the fungal suspensions in the absence or presence of the individual peptide dilutions were counted and compared. The standard deviations of the triplicate incubations of each plate were determined using statistical software. The evaluation of the Minimum Fungicidal Concentration (MFC), i.e., the lowest concentration of antifungal agent capable of 99.9% inhibition of fungal growth on plates, was carried out as described in Bílikova et al, (2015, Peptides 68:190-196).
substance,measurement,setting,value
"RLKWVRIWRR-NH2 [RiLK1, RLKWVRIWRR]",solubility,[1],1000 µM
same,solubility,[1]; pH 4.4,900 µM
same,Random (Bestsel),"[2]; 4° C., t = 24 hours",47.5%
same,Random (DichroWeb CONTIN-LL),"[2]; 4° C., t = 24 hours",38%
same,α-helix (Bestsel),"[2]; 4° C., t = 24 hours",6.5%
same,α-helix (DichroWeb CONTIN-LL),"[2]; 4° C., t = 24 hours",25%
same,β-sheet (Bestsel),"[2]; 4° C., t = 24 hours",46%
same,β-sheet (DichroWeb CONTIN-LL),"[2]; 4° C., t = 24 hours",37%
same,Random (Bestsel),"[2]; 25° C., t = 24 hours",43.6%
same,Random (DichroWeb CONTIN-LL),"[2]; 25° C., t = 24 hours",37%
same,α-helix (Bestsel),"[2]; 25° C., t = 24 hours",6.8%
same,α-helix (DichroWeb CONTIN-LL),"[2]; 25° C., t = 24 hours",24%
same,β-sheet (Bestsel),"[2]; 25° C., t = 24 hours",49.7%
same,β-sheet (DichroWeb CONTIN-LL),"[2]; 25° C., t = 24 hours",39%
same,Random (Bestsel),[2]; t = 0,44.9%
same,Random (DichroWeb CONTIN-LL),[2]; t = 0,36%
same,α-helix (Bestsel),[2]; t = 0,17.9%
same,α-helix (DichroWeb CONTIN-LL),[2]; t = 0,21%
same,β-sheet (Bestsel),[2]; t = 0,37.1%
same,β-sheet (DichroWeb CONTIN-LL),[2]; t = 0,43%
same,bactericidal concentration lower compared to IDR-1018-K6,L. monocytogenes (LM2); L. monocytogenes,4 fold
same,MBC,L. monocytogenes (LM2); L. monocytogenes (LM2),2 µM
same,Drop Log CFU/ml,[3],5 Log CFU/ml
same,post-treatment decrease in the fungal load,[3],5 Log
